Four cell lines from the supplement of paper PMC10307832 can be followed below.

Holding throughout (assay): relative viability (nuclei count vs DMSO), 5 days (fraction); higher = more cells survive
Compound in assay [1]: NCC(=O)Nc1ccc(-n2nc(C(F)(F)F)cc2-c2ccc3c(ccc4ccccc43)c2)cc1 + Cc1nc(NC(=O)N2CCC[C@H]2C(N)=O)sc1-c1ccnc(C(C)(C)C(F)(F)F)c1 [Alpelisib] (partner 2 µM)
In short, it runs like this:
(§1)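 Lung cancer cell lines, seeded in 1536-well plates, were treated the following day by pin tool with a single drug or with five library-drug doses (not always all listed) in √10 steps on top of a fixed anchor-drug dose. Cells were fixed and nuclei stained in one step after 5 days, and nuclei were counted. Relative viability is the nuclei count for treated wells divided by that for vehicle wells, reported as medians of duplicate plates.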

Compound in assay [2]: C1CSC2=C(C(=O)N1)SC3=C2C=C(C=C3)O [kb NB 142-70] + CC(=O)c1c(C)c2cnc(Nc3ccc(N4CCNCC4)cn3)nc2n(C2CCCC2)c1=O [Palbociclib] (partner 0.5 µM)
In short, it runs like this: as §1

Compound in assay [3]: C1CSC2=C(C(=O)N1)SC3=C2C=C(C=C3)O [kb NB 142-70] + C[C@]1(O)C[C@@H](c2nc(-c3ccc4ccc(-c5ccccc5)nc4c3)c3c(N)nccn32)C1 [Linsitinib] (partner 1 µM)
In short, it runs like this:
as §1

Compound in assay [4]: C1CSC2=C(C(=O)N1)SC3=C2C=C(C=C3)O [kb NB 142-70] + CC1(C)CCC(c2ccc(Cl)cc2)=C(CN2CCN(c3ccc(C(=O)NS(=O)(=O)c4ccc(N[C@H](CCN5CCOCC5)CSc5ccccc5)c(S(=O)(=O)C(F)(F)F)c4)cc3)CC2)C1 [Navitoclax] (partner 0.5 µM)
In short, it runs like this: as §1

Compound in assay [5]: NCC(=O)Nc1ccc(-n2nc(C(F)(F)F)cc2-c2ccc3c(ccc4ccccc43)c2)cc1 + N=C(N)NC(=N)NCCc1ccccc1 [Phenformin] (partner 250 µM)
In short, it runs like this:
as §1

As to NCI-H520, the relative viability in assay [1] (first compound 0.02 µM) came out at 0.979; in assay [1] (first compound 0.06325 µM), 0.982; in assay [1] (first compound 0.2 µM) it was 1.04; in assay [1] (first compound 0.6325 µM), 0.92; in assay [1] (first compound 2 µM) it was 0.896; in assay [2] (first compound 0.1 µM), 0.234. Further, the relative viability in assay [2] (first compound 1 µM) was determined as 0.21; in assay [2] (first compound 3.162 µM) it was 0.164; in assay [3] (first compound 0.1 µM), 0.874; in assay [3] (first compound 1 µM), 0.972; in assay [3] (first compound 3.162 µM) it was 0.641; in assay [4] (first compound 0.1 µM), 1.07. Further, the relative viability was determined as 1.19 in assay [4] (first compound 1 µM); 0.482 in assay [4] (first compound 3.162 µM); 0.574 in assay [5] (first compound 0.02 µM); 0.628 in assay [5] (first compound 0.06325 µM); 0.641 in assay [5] (first compound 0.2 µM); 0.625 in assay [5] (first compound 0.6325 µM). The relative viability in assay [5] (first compound 2 µM) was found to be 0.618.

As for NCI-H647, the relative viability in assay [1] (first compound 0.02 µM) turned out to be 1.31; in assay [1] (first compound 0.06325 µM), 1.15; in assay [1] (first compound 0.2 µM), 1.21; in assay [1] (first compound 0.6325 µM), 1.12; in assay [1] (first compound 2 µM), 0.982; in assay [2] (first compound 0.1 µM), 0.289. Besides, the relative viability in assay [2] (first compound 1 µM) is 0.372; in assay [2] (first compound 3.162 µM) it was 0.414; in assay [3] (first compound 0.1 µM), 1.1; in assay [3] (first compound 1 µM), 1.2; in assay [3] (first compound 3.162 µM), 1.17; in assay [4] (first compound 0.1 µM), 1.16. The relative viability is 1.19 in assay [4] (first compound 1 µM); 0.842 in assay [4] (first compound 3.162 µM); 0.451 in assay [5] (first compound 0.02 µM); 0.576 in assay [5] (first compound 0.06325 µM); 0.629 in assay [5] (first compound 0.2 µM); 0.463 in assay [5] (first compound 0.6325 µM). Moreover, in assay [5] (first compound 2 µM), the relative viability worked out at 0.558.

For the cell line NCI-H727, the relative viability stood at 0.636 in assay [1] (first compound 0.02 µM); 0.561 in assay [1] (first compound 0.06325 µM); 0.614 in assay [1] (first compound 0.2 µM); 0.531 in assay [1] (first compound 0.6325 µM); 0.686 in assay [1] (first compound 2 µM); 0.681 in assay [2] (first compound 0.1 µM). Further, the relative viability in assay [2] (first compound 1 µM) came to 0.653; in assay [2] (first compound 3.162 µM), 0.678; in assay [3] (first compound 0.1 µM), 0.356; in assay [3] (first compound 1 µM), 0.323; in assay [3] (first compound 3.162 µM), 0.28; in assay [4] (first compound 0.1 µM) it was 0.522. Besides, the relative viability is 0.397 in assay [4] (first compound 1 µM); 0.263 in assay [4] (first compound 3.162 µM); 0.63 in assay [5] (first compound 0.02 µM); 0.606 in assay [5] (first compound 0.06325 µM); 0.561 in assay [5] (first compound 0.2 µM); 0.41 in assay [5] (first compound 0.6325 µM). Further, the relative viability in assay [5] (first compound 2 µM) worked out at 0.728.

On to NCI-H838, for which the relative viability in assay [1] (first compound 0.02 µM) is 0.971; in assay [1] (first compound 0.06325 µM), 1.01; in assay [1] (first compound 0.2 µM), 1.12; in assay [1] (first compound 0.6325 µM), 0.916; in assay [1] (first compound 2 µM), 0.933; in assay [2] (first compound 0.1 µM), 0.203. In addition, the relative viability in assay [2] (first compound 1 µM) is 0.219; in assay [2] (first compound 3.162 µM), 0.188; in assay [3] (first compound 0.1 µM), 0.993; in assay [3] (first compound 1 µM), 1.08; in assay [3] (first compound 3.162 µM) it was 0.98; in assay [4] (first compound 0.1 µM) it was 1.19. Moreover, the relative viability in assay [4] (first compound 1 µM) was found to be 1.14; in assay [4] (first compound 3.162 µM), 1; in assay [5] (first compound 0.02 µM), 0.51; in assay [5] (first compound 0.06325 µM), 0.661; in assay [5] (first compound 0.2 µM) it was 0.634; in assay [5] (first compound 0.6325 µM), 0.548. In addition, in assay [5] (first compound 2 µM), the relative viability came to 0.497.
